Test results taken from ChEMBL document CHEMBL1130722, “Synthesis of gem-difluoro-avermectin derivatives: potent anthelmintic and anticonvulsant agents” (1998).

Key:
Assay type in all cases: functional
Artemia salina = assay: Compound was tested for the antiparasitic activity by using Artemia salina (brine shrimp) immobilization assay
Haemonchus contortus = assay: Compound was tested for the anthelmintic efficacy by using Haemonchus contortus larval assay
Mus musculus [1] = species: Mus musculus; assay: Compound was tested for the anticonvulsant activity in pentamethylenetetrazole mouse epilepsy model
Mus musculus [2] = species: Mus musculus; assay: Compound was tested for the sedative effect by using mouse rotarod test; conditions: for minimal effective dose: read-out: MED

Compound | IC100 (Artemia salina) | IC100 (Haemonchus contortus) | ED50 (Mus musculus [1]) | MED (Mus musculus [2]) | IC100 (Mus musculus [1]) | minimal effective dose (Mus musculus [2])
CCC(C)[C@H]1O[C@]2(C=C[C@@H]1C)C[C@@H]1C[C@@H](C/C=C(\C)C(F)(F)[C@@H](C)/C=C/C=C3\CO[C@@H]4[C@H](O)C(C)=C[C@@H](C(=O)O1)[C@]34O)O2 (stereo partly drawn) | 325 ng/mL | 10 ng/mL |  |  |  | 
IVERMECTIN | 430 ng/mL | 10 ng/mL | 28.2 mg/kg | > 300 mg/kg |  | 
CCC(C)[C@H]1O[C@]2(C=C[C@@H]1C)C[C@@H]1C[C@@H](C/C=C(\C)[C@@H](O[C@H]3C[C@H](OC)[C@@H](O[C@H]4C[C@H](OC)[C@H](O)[C@H](C)O4)[C@H](C)O3)[C@@H](C)/C=C/C=C3\CO[C@@H]4[C@H](O)C(C)=C[C@@H](C(=O)O1)[C@]34O)O2 (stereo partly drawn) | 430 ng/mL |  |  |  | 28.2 ng/mL | 
CCC(C)[C@H]1O[C@]2(C=C[C@@H]1C)C[C@@H]1C[C@@H](C/C=C(\C)[C@@H](O[C@H]3C[C@H](OC)[C@@H](O[C@H]4C[C@H](OC)C(F)(F)[C@H](C)O4)[C@H](C)O3)[C@@H](C)/C=C/C=C3\CO[C@@H]4[C@H](O)C(C)=C[C@@H](C(=O)O1)[C@]34O)O2 (stereo partly drawn) | 5200 ng/mL | 10 ng/mL |  |  |  | 
CCC(C)[C@H]1O[C@]2(C=C[C@@H]1C)C[C@@H]1C[C@@H](C/C=C(\C)[C@@H](O[C@H]3C[C@H](OC)C(F)(F)[C@H](C)O3)[C@@H](C)/C=C/C=C3\CO[C@@H]4[C@H](O)C(C)=C[C@@H](C(=O)O1)[C@]34O)O2 (stereo partly drawn) |  | 10 ng/mL |  |  |  | 
CCC(C)[C@H]1O[C@@]2(C[C@@H]3C[C@@H](C/C=C(\C)[C@@H](O[C@H]4C[C@H](OC)[C@@H](O[C@H]5C[C@H](OC)[C@@H](O)[C@H](C)O5)[C@H](C)O4)[C@@H](C)/C=C/C=C4\CO[C@@H]5[C@H](O)C(C)=C[C@@H](C(=O)O3)[C@]45O)O2)CC(F)(F)[C@@H]1C (stereo partly drawn) | 13009 ng/mL | 10 ng/mL | 9 mg/kg |  |  | > 40 mg/kg
CCC(C)[C@H]1O[C@@]2(C[C@@H]3C[C@@H](C/C=C(\C)[C@@H](O[C@H]4C[C@H](OC)[C@@H](O[C@H]5C[C@H](OC)[C@@H](O)[C@H](C)O5)[C@H](C)O4)[C@@H](C)/C=C/C=C4\CO[C@@H]5[C@H](OC)C(C)=C[C@@H](C(=O)O3)[C@]45O)O2)CC(F)(F)[C@@H]1C (stereo partly drawn) |  | 10 ng/mL |  |  |  | 
CN1C(=O)CN=C(c2ccccc2)c2cc(Cl)ccc21 [DIAZEPAM] |  |  | 0.26 mg/kg |  |  | 3 mg/kg
